# Tests used:
# [1] = target: T1, Retinoic acid receptor RXR-gamma (Homo sapiens, UniProt P48443)
# T1 sequence (P48443 whole entry): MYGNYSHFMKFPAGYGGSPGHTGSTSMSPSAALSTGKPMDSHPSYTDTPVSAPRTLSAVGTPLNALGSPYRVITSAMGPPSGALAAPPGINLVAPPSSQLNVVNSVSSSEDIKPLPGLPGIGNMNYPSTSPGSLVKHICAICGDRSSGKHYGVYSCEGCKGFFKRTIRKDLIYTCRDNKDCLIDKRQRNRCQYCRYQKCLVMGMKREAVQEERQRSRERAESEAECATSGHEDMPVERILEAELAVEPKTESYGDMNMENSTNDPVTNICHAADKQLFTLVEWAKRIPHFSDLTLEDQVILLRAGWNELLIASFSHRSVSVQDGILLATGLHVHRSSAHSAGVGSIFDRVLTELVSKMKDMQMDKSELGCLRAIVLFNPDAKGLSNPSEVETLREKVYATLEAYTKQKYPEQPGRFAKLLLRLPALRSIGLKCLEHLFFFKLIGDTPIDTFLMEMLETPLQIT
# [2] = target: T2, Retinoic acid receptor RXR-alpha (Homo sapiens, UniProt P19793)
# T2 sequence (P19793 whole entry): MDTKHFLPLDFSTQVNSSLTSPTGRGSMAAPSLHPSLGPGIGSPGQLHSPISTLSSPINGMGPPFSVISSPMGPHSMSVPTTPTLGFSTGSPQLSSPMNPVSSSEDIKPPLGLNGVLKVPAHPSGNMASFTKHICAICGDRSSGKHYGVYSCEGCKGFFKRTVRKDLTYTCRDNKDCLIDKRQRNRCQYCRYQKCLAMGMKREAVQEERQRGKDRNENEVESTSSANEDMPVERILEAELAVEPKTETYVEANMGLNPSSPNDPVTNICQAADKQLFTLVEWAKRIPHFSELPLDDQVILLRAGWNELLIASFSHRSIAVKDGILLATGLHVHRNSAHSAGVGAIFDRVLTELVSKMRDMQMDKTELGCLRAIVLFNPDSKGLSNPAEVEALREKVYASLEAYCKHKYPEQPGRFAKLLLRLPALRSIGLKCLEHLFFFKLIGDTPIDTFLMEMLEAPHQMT
# [3] = target: T3, Retinoic acid receptor RXR-beta (Homo sapiens, UniProt P28702)
# T3 sequence (P28702 whole entry): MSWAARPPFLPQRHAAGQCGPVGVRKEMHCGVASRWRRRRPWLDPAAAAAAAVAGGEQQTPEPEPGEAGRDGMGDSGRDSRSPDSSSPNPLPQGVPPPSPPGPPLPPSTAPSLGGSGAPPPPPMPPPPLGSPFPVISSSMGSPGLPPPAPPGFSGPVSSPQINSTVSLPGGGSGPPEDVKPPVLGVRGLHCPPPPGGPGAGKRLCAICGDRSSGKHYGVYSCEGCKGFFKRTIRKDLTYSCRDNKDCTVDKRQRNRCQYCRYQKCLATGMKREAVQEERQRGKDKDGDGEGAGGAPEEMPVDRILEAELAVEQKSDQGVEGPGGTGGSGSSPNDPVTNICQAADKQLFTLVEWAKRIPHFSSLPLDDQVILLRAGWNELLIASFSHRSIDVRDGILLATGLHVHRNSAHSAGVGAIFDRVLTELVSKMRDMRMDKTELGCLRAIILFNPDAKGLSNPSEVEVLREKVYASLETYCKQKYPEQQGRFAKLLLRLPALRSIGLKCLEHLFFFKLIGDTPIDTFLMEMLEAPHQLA
# Description: Partial agonist activity at recombinant human RXR beta LBD (298 to 533 residues) expressed in Escherichia coli Rosetta incubated for 16 hrs by Gal4-hybrid reporter gene based Dual-glo luciferase assay
# [4] = target: T3, Retinoic acid receptor RXR-beta; test: Partial agonist activity at full length human RXR beta transfected in HEK293T cells assessed as DR1 activation incubated for 16 hrs by Dual-glo luciferase assay; format: cell-based
Structure (SMILES),EC50 [1] [nM],EC50 [2] [nM],EC50 [3] [nM],EC50 [4]
CN(c1ccc(Cl)c(Cl)c1)c1cc(Cl)nc(OCCC(=O)O)n1,6000,,,
Cc1ccc2c(c1)N(c1cc(Cl)nc(OCCC(=O)O)n1)CCC2,,38,,
CN(c1ccccc1)c1cc(Cl)nc(OCCC(=O)O)n1,31000,4200,,
CC1CCN(c2cc(Cl)nc(OCCC(=O)O)n2)c2cc(Cl)ccc21 (stereo unspecified),100,,,
CN(c1cc(Cl)nc(OCCC(=O)O)n1)c1cccc2c1CCC2,1200,,,
CC1(C)CCN(c2cc(Cl)nc(OCCC(=O)O)n2)c2ccccc21,11,9,,
Cc1cccc(N(C)c2cc(Cl)nc(OCCC(=O)O)n2)c1,2600,400,,
Cc1cccc2c1CCCN2c1cc(Cl)nc(OCCC(=O)O)n1,480,90,,
CN(c1cccc(C(F)(F)F)c1)c1cc(Cl)nc(OCCC(=O)O)n1,2700,,,
CN(c1cccc(Br)c1)c1cc(Cl)nc(OCCC(=O)O)n1,1800,,,
CC1CCN(c2cc(Cl)nc(OCCC(=O)O)n2)c2ccccc21 (stereo unspecified),50,7,100,
CN(c1cc(Cl)cc(Cl)c1)c1cc(Cl)nc(OCCC(=O)O)n1,,260,,
CN(c1cc(Cl)nc(OCCC(=O)O)n1)c1cccc(Cl)c1Cl,14000,3200,,
Cc1ccc2c(c1)N(c1cc(Cl)nc(OCCC(=O)O)n1)CCC2C (stereo unspecified),60,40,34,
O=C(O)CCOc1nc(Cl)cc(N2CCCc3ccccc32)n1,680,110,,
CC1CCc2ccccc2N1c1cc(Cl)nc(OCCC(=O)O)n1 (stereo unspecified),,,,Not Active
Cc1cc(C)cc(N(C)c2cc(Cl)nc(OCCC(=O)O)n2)c1,160,,,
O=C(O)CCOc1nc(Cl)cc(N2CCCc3ccc(Cl)cc32)n1,140,19,,
CN(c1cccc(Cl)c1)c1cc(Cl)nc(OCCC(=O)O)n1,2400,560,,
CN(c1cc(C(F)(F)F)cc(C(F)(F)F)c1)c1cc(Cl)nc(OCCC(=O)O)n1,,150,,
CC1Cc2ccccc2N(c2cc(Cl)nc(OCCC(=O)O)n2)C1 (stereo unspecified),220,29,34,
Cc1cc(C)c2c(c1)N(c1cc(Cl)nc(OCCC(=O)O)n1)CCC2,40,,,
